Paper PMC4871480, “A Miniaturized Screen of a Schistosoma mansoni Serotonergic G Protein-Coupled Receptor Identifies Novel Classes of Parasite-Selective Inhibitors” (PLoS Pathogens, 2016)
Entries after “also recorded” stand apart in the source; their conditions may differ. Like-named read-outs stand apart in the source and are kept apart here.

Experiments:
Hs.5HT7R = molecular target: T1, Hs.5HT7R (Homo sapiens, UniProt P34969); assay: GloSensor cAMP assay in HEK293 cells expressing Hs.5HT7R; type: cell-based; conditions: for potency (IC50) at Hs.5HT7R: Fig 7 quadrant
T1 construct: host or cells: HEK293 (ATCC CRL-1573.3), transient transfection, pCS2(-) vector
Description: (§1) HEK293 cells (ATCC CRL-1573.3) were cultured in DMEM supplemented with 10% fetal bovine serum (FBS), penicillin (100 units/ml), streptomycin (100 μg/ml), and L-glutamine (290 μg/ml). Cells were transiently transfected (ViaFect, Promega) as per the manufacturer’s protocol at a density of 2x10^6 cells per T-25 cell-culture flask. Cells were transfected with plasmids encoding GloSensor (Promega) and either Sm.5HTR (Smp_126730, GenBank accession number KF444051.1) or Sm.5HTRL (KX150867), bothGPCRs being codon optimized for mammalian expression, or Hs.5HT7a (GenBank accession number NM_000872.4, R&D Systems) subcloned into pCS2(-). Cell culture reagents were from Invitrogen. Epitope tagged constructs were used to verify expression, and untagged constructs used for all luminescence assays.
(§2) For assays performed on adherent cells, HEK-293 cells were transferred one day post transfection to 96 well, solid white plates (Corning, cat # 3917) coated with 0.01% poly-L-lysine (Sigma Aldrich) at a density of 5 x 10^4 cells / well in DMEM supplemented with 1% dialyzed FBS (Gibco). After overnight culture (37°C/5% CO2), media was decanted and replaced with 100μL / well HBSS supplemented with 0.1% BSA, 20mM HEPES (pH 7.4) and GloSensor reagent. Plates were allowed to equilibrate at room temperature for two hours prior to performing luminescence assays (GloMax-Multi Detection System plate reader, Promega). Conditions for individual assays were described as per figure legends. The standard assay to detect changes in cAMP utilized the F22 sensor in media supplemented with IBMX (200μM). Ligands were added at a concentration of 20x per well for experiments (i.e. 5μl of drug solution added to 100μl of cells). […] For the resazurin reduction assay for cellular viability, cells were incubated with resazurin (final concentration, 10μM) and tested ligands with fluorescence measurements (560 nm excitation/590 nm emission) made at 1.5hr intervals.

Sm.5HTR [1] = molecular target: T2, Sm.5HTR (Schistosoma mansoni, UniProt G4V5G4); assay: cell-based; type: cell-based; conditions: for potency (IC50) at Sm.5HTR: Fig 7 quadrant
Description: as §1, §2

[2] = system: S. mansoni schistosomules; assay: Schistosomule contractility assay; type: in vivo, Schistosoma mansoni; conditions: Schistosoma mansoni, read-out: IC50 (inhibition of 5-HT evoked contractions)
Description: Biomphalaria glabrata (M-line) snails exposed to Schistosoma mansoni miracidia (Strain PR-1) were obtained from BEI Resources (Cat. number NR-21961) and cercaria were shed following exposure to light (1.5 hours). Cercaria were manually transformed into schistosomula by vortexing (3 x 45 seconds, each separated by 3 minutes on ice) and tails were removed by gradient centrifugation (24ml Percoll, 4ml 10X EMEM, 1.5ml penicillin-streptomycin, 1ml of 1M HEPES in 0.85% NaCl, 9.5ml distilled water) at 500g/15min at 4°C. Supernatant containing tails was discarded, and schistosomules were resuspended in Basch media and incubated (37°C, 5% CO2) overnight before conducting mobility assays. For contractility experiments, somules were incubated in 5-HT free Basch media to resolve a basal contractility rate. […] Schistosomules were incubated in 24 well plates (~200 schistosomules / 0.5mL media per well) for 30 minutes (37°C/5% CO2) prior to acquiring videos of schistosome movement (1 minute recordings / well) using a Nikon Coolpix 5700 camera affixed to a Nikon Eclipse TS100 microscope (10x objective). The WrmTrck plugin for ImageJ was used to quantify worm mobility. Briefly, the major axis of each schistosomule body length was extracted from the raw output of WrmTrck and an average length was determined for the duration of the recording. Contractions were quantified by determining the number of episodes during which the worm body length deviated from the average by over 20%. S. mansoni protocols were approved by the Iowa State University Institutional Biosafety Committee.

Sm.5HTR [3] = molecular target: T2, Sm.5HTR; assay: Antagonist washout (inactivating antagonist) GloSensor assay on suspension cells; type: cell-based
Description: To test putative irreversible antagonists, assays on suspension cells were performed one day post transfection. […] Compounds were added at 10 μM, and after 30 minute incubation at room temperature cells were centrifuged (300 RCF, 5 minutes) and resuspended in fresh media. This wash step was repeated, and cells were resuspended in HBSS supplemented with 0.1% BSA, 20mM HEPES and GloSensor reagent. Cells were gently rotated to prevent aggregation and settling over the course of the two hour equilibration period, after which time they were transferred to 96 well plates at a density of 8 x 10^4 cells / 100μL per well and assays described for adherent cells.

adult schistosomes = assay: Adult schistosome mobility assay; type: in vivo, Schistosoma mansoni; conditions: 10μM; for effect on 5-HT evoked increases in worm movement / time to recovery of movement after drug removal, male worms: 5-HT 100μM; for time to recovery of movement after drug removal, male worms: 2 hour exposure; for effect on basal movement of adult worms: worms at rest
Description: Female Swiss Webster mice exposed to Schistosoma mansoni cerceria (Strain PR-1) at 5–7 weeks old were obtained from BEI Resources (Cat. number NR-34792) and sacrificed 6–8 weeks post-infection. Mature S. mansoni were harvested from the mesenteric vasculature by portal perfusion. Briefly, mice were anesthetized in a CO2 chamber and sacrificed by cervical dislocation. Mice were perfused with sodium citrate (25mM) and adult schistosomes were harvested from the mesenteric veins. Schistosomes were washed in RPMI media containing penicillin (1000 units/mL), streptomycin (1000 μg/mL) and 25mM HEPES, then transferred to RPMI media supplemented with 2mM glutamine and 5% heat inactivated FBS. Worms were incubated overnight at 37°C, 5% CO2 before conducting assays. Recordings of adult schistosome movement were captured using a Zeiss Discovery v20 stereomicroscope and a QiCAM 12-bit cooled color CCD camera. Videos were acquired at a rate of four frames per second for one minute. Recordings of female worms were acquired at 7.6x magnification, 30 mm field of view and recordings of male worms were acquired at a 5.1x magnification, 45 mm field of view. Analysis was performed in ImageJ as described previously. Briefly, image (.tiff) stacks of each recording were imported and processed by converting to binary format so that pixel measurements represent area of the worms’ bodies. Mobility was quantified by measuring the difference in pixels resulting from subtracting the value of one frame (n) from those of the next frame in the sequence (n+1). This difference was expressed as a percentage of the pixels in the initial frame (n), providing a measurement of the worms’ movement over a period of 0.25 seconds. This calculation was performed for each frame in the video, and the results were averaged over the length of the recording. Values reported represent the mean (±) standard error of at least three independent experiments. Animal work was carried out with the oversight and approval of the Laboratory Animal Resources facility at the Iowa State University College of Veterinary Medicine.

regenerating planarians = system: regenerating planarians; parameters: method as in PMID 24586156; conditions: cited from earlier work
Sm.5HTRL = Sm.5HTRL (Schistosoma mansoni, UniProt A0A173FEI8); assay: GloSensor cAMP assay in HEK293 cells expressing Sm.5HTRL; type: cell-based; conditions: antagonists 10μM, 5-HT EC80 dose
Description: as §1, §2

T1 sequence (P34969 1-445 isoform P34969-2): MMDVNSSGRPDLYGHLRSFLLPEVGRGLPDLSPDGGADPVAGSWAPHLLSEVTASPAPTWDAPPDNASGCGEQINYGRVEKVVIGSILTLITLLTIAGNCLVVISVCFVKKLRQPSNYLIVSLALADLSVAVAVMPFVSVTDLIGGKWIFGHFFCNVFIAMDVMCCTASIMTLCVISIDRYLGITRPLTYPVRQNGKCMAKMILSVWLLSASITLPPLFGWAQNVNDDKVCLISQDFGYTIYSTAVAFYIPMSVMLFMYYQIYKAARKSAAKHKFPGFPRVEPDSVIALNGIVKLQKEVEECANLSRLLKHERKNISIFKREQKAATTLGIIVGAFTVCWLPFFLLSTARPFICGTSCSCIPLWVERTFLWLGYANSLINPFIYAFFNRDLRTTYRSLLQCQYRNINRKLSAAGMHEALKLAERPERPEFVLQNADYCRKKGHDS
T2 sequence (G4V5G4 entry or part of it): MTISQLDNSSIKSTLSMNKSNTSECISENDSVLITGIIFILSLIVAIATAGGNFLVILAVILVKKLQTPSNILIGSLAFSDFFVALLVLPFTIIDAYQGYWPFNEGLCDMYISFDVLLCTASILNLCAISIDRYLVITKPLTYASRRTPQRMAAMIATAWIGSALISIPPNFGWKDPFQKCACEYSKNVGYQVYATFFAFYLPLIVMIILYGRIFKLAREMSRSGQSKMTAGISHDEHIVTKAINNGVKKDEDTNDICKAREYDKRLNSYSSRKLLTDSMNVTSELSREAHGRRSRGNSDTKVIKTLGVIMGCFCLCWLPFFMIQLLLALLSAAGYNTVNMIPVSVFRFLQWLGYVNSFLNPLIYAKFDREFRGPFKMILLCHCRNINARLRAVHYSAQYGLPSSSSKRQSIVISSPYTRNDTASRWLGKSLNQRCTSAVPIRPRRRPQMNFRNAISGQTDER
Chain of Sm.5HTRL (A0A173FEI8 entry or part of it): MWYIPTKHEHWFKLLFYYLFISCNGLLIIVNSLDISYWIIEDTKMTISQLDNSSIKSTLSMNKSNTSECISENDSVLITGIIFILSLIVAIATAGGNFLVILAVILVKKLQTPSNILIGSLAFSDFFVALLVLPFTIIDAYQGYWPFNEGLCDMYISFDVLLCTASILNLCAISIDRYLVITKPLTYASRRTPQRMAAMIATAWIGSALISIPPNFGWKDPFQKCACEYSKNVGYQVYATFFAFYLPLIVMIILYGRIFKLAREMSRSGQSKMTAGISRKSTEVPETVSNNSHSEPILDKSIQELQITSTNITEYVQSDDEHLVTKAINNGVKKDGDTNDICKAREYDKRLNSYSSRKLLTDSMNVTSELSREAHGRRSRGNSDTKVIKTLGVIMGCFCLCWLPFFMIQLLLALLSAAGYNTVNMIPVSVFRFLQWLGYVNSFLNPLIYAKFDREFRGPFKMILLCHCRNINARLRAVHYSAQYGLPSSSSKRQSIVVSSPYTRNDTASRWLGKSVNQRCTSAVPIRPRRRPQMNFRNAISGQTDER

For `CC(C)C[C@H]1C(=O)N2CCC[C@H]2[C@]2(O)O[C@](NC(=O)[C@@H]3C=C4c5cccc6[nH]c(Br)c(c56)C[C@H]4N(C)C3)(C(C)C)C(=O)N12` [bromocriptine], the “potency (IC50) at Hs.5HT7R” value (Hs.5HT7R) was “supra-μM potency”, the “ligand type at Sm.5HTR” value (Sm.5HTR [1]; Fig 5F) was “Antagonist” and the “potency (IC50) at Sm.5HTR” value (Sm.5HTR [1]) was “sub-μM potency”. For the same compound, the Kb (Sm.5HTR [1]; KB (affinity constant, Schild regression), right-shift of 5-HT dose-response) was 0.41 µM, the “selectivity for the parasitic 5-HT receptor” value (Sm.5HTR [1]; Sm.5HTR over Hs.5HT7R) was ~ 10 fold and the “inhibition of 5-HT evoked cAMP generation” value (Sm.5HTR [1]; at higher concentrations (>10μM)) was “almost complete inhibition”. The “agonist efficacy at Sm.5HTR” value (Sm.5HTR [1]; dose response, Fig 5A) was “no efficacy”, the “acute inhibition of 5-HT (10μM) response at Sm.5HTR” value (Sm.5HTR [1]; drug 10μM, preincubation) was “acutely inhibited” and the Kb (Sm.5HTR [1]; pKB ± S.E.M, Schild regression) was 0.407 µM. For the same compound, the IC50 [2] was no more than 1 µM, the “inhibition of Sm.5HTR after antagonist wash-out” value (Sm.5HTR [3]; 10μM for 30 mins, washout, 5-HT response 1hr later) was “long-lasting inhibition” and the “potency for Sm.5HTR inhibition after washout” value (Sm.5HTR [3]; titration, Fig 6E) was “most potent”. The “effect on 5-HT evoked increases in worm movement” value (adult schistosomes) was “inhibited”, the “time to recovery of movement after drug removal, male worms” value (adult schistosomes) was 24 h and the “effect on basal movement of adult worms” value (adult schistosomes) was “markedly inhibited worm movements at rest”. The “concentration evoking bipolarity, fold less than PZQ” value (regenerating planarians) was 100 fold.
For `COc1cc2c(cc1OC)[C@@H]1Cc3ccc(OC)c(OC)c3CN1CC2` [rotundine], the “potency (IC50) at Hs.5HT7R” value (Hs.5HT7R) was “supra-μM potency”, the “effect on Hs.5HT7” value (Hs.5HT7R; concentrations up to 50μM) was “lacking any effect” and the IC50 (Sm.5HTR [1]) was 0.701 ± 0.207 µM. For the same compound, the “selectivity for Sm.5HTR over Hs.5HT7R” value (Sm.5HTR [1]) was “clear selectivity for Sm.5HTR; also recorded: clear bias toward Sm.5HTR”, the “potency (IC50) at Sm.5HTR” value (Sm.5HTR [1]) was “sub-μM potency” and the IC50 (Sm.5HTR [1]; IC50 (antagonism of 5-HT evoked cAMP generation), 5-HT at EC80) was roughly 0.7 µM. For the same compound, the IC50 [2] was no more than 1 µM, the “inhibition of 5-HT evoked cAMP generation through Sm.5HTRL” value (Sm.5HTRL) was “inhibited 5-HT evoked cAMP generation” and the “effect on 5-HT evoked increases in worm movement” value (adult schistosomes) was “inhibited”. The “time to recovery of movement after drug removal, male worms” value (adult schistosomes) was no more than 3 h and the “effect on basal movement of adult worms” value (adult schistosomes) was “markedly inhibited worm movements at rest”.
